Source: patent US20110281951A1, “Compositions and methods for treating amyloidosis” (priority 1999, published 2011)

Experiments:
Assay type in all cases: biochemical
[1] = molecular target: T1, IAPP (Homo sapiens, UniProt P10997); test: CD analysis of IAPP fibril formation (Example 4); parameters: add 10 μL of 10 mg/mL IAPP stock solution (final 100 ng peptide)
T1 sequence (P10997 34-70 limits assumed): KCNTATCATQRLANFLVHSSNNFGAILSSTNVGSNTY

[2] = molecular target: T2, Aβ42 (Homo sapiens, UniProt P05067); test: Solubility assay using Bradford detection (Aβ fibril formation); settings: roughly 1:10 peptide:compound, overnight at room temperature, 10 mM phosphate buffer pH 7
T2 construct: Stock solution of Aβ42 or Aβ40 peptide at 5 mg/ml in distilled water, pH 7; made in house; host or cells: chemical synthesis (FMOC), HPLC purified
T2 sequence (P05067 672-713 limits assumed): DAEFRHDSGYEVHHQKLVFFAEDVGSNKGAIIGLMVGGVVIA
Experimental: Alternatively, peptides can also be obtained from a number of commercial sources (e.g., BaChem and Peninsula Laboratories, California). The assay was conducted as follows. Stock solution of Aβ42 or Aβ40 peptide at 5 mg/ml in distilled water, pH 7, and stock solutions of each test compound at 2 mg/ml in distilled water, pH 7 were prepared. • 1. Mix 5 μl (25 μg) of stock Aβ and 12.5 μl (25 μg) of stock test compounds into 1000 μl of 10 mM phosphate buffer, pH 7. This provides a molar ratio of roughly 1:10 [ peptide:compound] assuming a general molecular weight of 400 daltons for the test compounds. Control samples were prepared for both peptide and compound. These contained Aβ only using both 25 μg (5 μl stock Aβ) and 50 μg ([…]) to provide a standard curve for each run. Test compound controls contained 25 μg of material (12.5 μl of stock). All samples were mixed in 1000 μl of 10 mM phosphate buffer, pH 7 to final volume of 1017.5 μl. • 2. Incubate all samples overnight at room temperature without mixing. • 3. Spin at 14,000 rpm for 10 min in table top Eppendorf microfuge. • 4. Take 800 μl of supernatant. • 5. Add 200 μl of Bradford reagent (purchased from BioRad). • 6. Mix well by vortexing. • 7. Read at OD595 nm.

[3] = molecular target: T3, Aβ(1-40) (Homo sapiens, UniProt P05067); test: Circular dichroism analysis, pre-incubation assay, β-sheet at 218 nm; settings: CD 218 nm, 0.02M Tris pH 7.4
T3 construct: Prepare a fresh 40 μm solution of Aβ(1-40) in 0.02M Tris, pH 7.4; made in house; host or cells: chemical synthesis (FMOC), HPLC purified
T3 sequence (P05067 672-711 limits assumed): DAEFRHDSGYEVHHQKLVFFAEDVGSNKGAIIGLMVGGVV
Experimental: The assay is conducted as follows:
Instrument: JASCO J-715 Spectropolarimeter.
Cell/cuvette: Hellma quartz (QS) with 1.0 mm pathlength Room temperature. Wavelength interval: 250 nm-190 nm.
Band width: 1.0 nm Response time: 1 sec Scanning speed: 20 nm/min Number of accumulations/spectrum: 5
1. Prepare a fresh 40 μm solution of Aβ(1-40) in 0.02M Tris, pH 7.4.
2. Prepare a 1 mM solution of test compounds in 0.02M Tris, pH 7.4.
3. Combine equal volumes of the Aβ(1-40) and test compound solutions.
4. Incubate the mixtures for 19 h.
5. Take the CD spectrum using the parameters above.
6. Return the mixtures to the incubator and incubate to 43 h.
7. Take the CD spectrum using the parameters above. • Inhibition of Aβ40 assembly/aggregation is determined by comparing the amount of b-sheet structure) appearing at lambda=218 nm) obtained in control and in treated sample at each timepoint.

| SMILES | Activity (preventing or inhibiting IAPP fibril formation) [1] | Aβ42 remaining in the supernatant (activity class) [2] | relative inhibition compared to Aβ alone, incubation time 0 h [3] | relative inhibition compared to Aβ alone, incubation time 19 h [3] | relative inhibition compared to Aβ alone, incubation time 43 h [3] |
| --- | --- | --- | --- | --- | --- |
| O=S(=O)(O)CCCNC1(CO)CCCC1 [XLII, 3-(1-hydroxymethyl-1-cyclopentyl)amino-1-propanesulfonic acid] | Active | – | – | – | – |
| O=S(=O)(O)CCCN1CCc2ccccc2C1 [XVII, 3-[2-(1,2,3,4-tetrahydroisoquinolinyl)]-1-propanesulfonic acid] | – | Active | —^1, 2 (No effect compared to Aβ alone) | + (+: 0-25%) | ++ (++: 25-50%) |
| COc1cc(-c2ccc(N=Nc3ccc4c(S(=O)(=O)[O-])cc(S(=O)(=O)[O-])c(N)c4c3O)c(OC)c2)ccc1N=Nc1ccc2c(S(=O)(=O)[O-])cc(S(=O)(=O)[O-])c(N)c2c1O.[Na+].[Na+].[Na+].[Na+] [XXIX, Chicago Sky Blue 6B] | – | Very active | – | – | – |
| CC(CCCO)NCCCS(=O)(=O)O (stereo not drawn) [XXXVIII, 3-[(dl)-5-hydroxy-2-pentyl]amino-1-propanesulfonic acid] | Active | – | — (No effect compared to Aβ alone) | +++ (+++: 50-75%) | ++ (++: 25-50%) |
